The record followed here is patent publication US20130261132A1, “CALCIUM-SENSING RECEPTOR-ACTIVE COMPOUNDS” (LEO PHARMA A/S, priority 2010, published 2013).

Series [1] in a line: Clearance in rat hepatocytes. As to conditions: hepatic extraction ratio; test compound 0.5 μM, 1×10^6 cells/mL, 37° C. Format: in vitro ADME. As for the experimental part: Test compounds and 4 control compounds are tested in duplicate per run. Test compound concentration is 0.5 μM and cell concentration is 1×10^6 cells/mL in the incubation. The described method is performed by the liquid handling system Tecan RSP and is based on a 96-well format.
The liver is collected from a male Spraque-Dawley rat. One liver lobe is cut off and flushed with various buffers to loosen the cells. The cell suspension is washed and centrifuged, and the cell density is adjusted to 1.2×10^6 cells/mL with Krebs-Henseleit buffer, pH 7.4, containing 0.2% bovine serum albumin (BSA). Only cell suspensions with viability above 80% are used.
The cell suspension is pre-heated (20 min) to 37° C. Test compound is added, and the mixture is incubated for 20 minutes. Incubations are run in duplicate. Samples are withdrawn at predetermined stop times and mixed with methanol containing internal standard (IS) to terminate all enzyme activity and precipitate proteins.
(§1) The percentage of organic solvent in the incubations is less than 1%. Careful inspections of reagents are performed prior to the start of any experiment to ensure all reagents are in solution.
(§2) The 96-well plates are centrifuged. Test compound depletion, using a compound specific LC/MS/MS method, is determined.
Data analysis is performed as described above in the section “Biological assay for analysis of clearance in human liver microsomes”, with the following modifications: Intrinsic clearance (CIint) (mL/min/10^6 cells) is calculated from: […]
where c is the cell concentration in 10^6 cells/mL.
The following scaling factors for rat are used for eq. 4:
a: 120 (cells/liver weight (10^6 cells/g))
d: 0.25 (body weight (kg))
Liver blood flow in rats (for eq. 5):
Apparent clearance below approximately 25 mL/min/kg rat body weight (corresponding to an extraction ratio of approx. 33%) is considered as low clearance (high metabolic stability). Apparent intrinsic clearance above approximately 165 mL/min/kg rat body weight (corresponding to an extraction ratio of approx. 75%) is considered as high clearance (low metabolic stability).

Series [2] can be described thus: Clearance in human liver microsomes. The conditions noted are these: hepatic extraction ratio; test compound 0.5 μM, microsomes 0.5 mg/mL, NADPH 1 mM, 37° C. In kind it is in vitro ADME. As for the experimental part: Test compound concentration is 0.5 μM, microsome concentration is 0.5 mg/mL and NADPH concentration is 1 mM in the incubation. The described method is performed by the liquid handling system Tecan RSP and is based on a 96-well format.
Control incubations with test compound without NADPH and test compound without microsomes are conducted to investigate non-CYP mediated metabolism and stability in phosphate buffer at 37° C., respectively.
The human liver microsomal suspension in phosphate buffer is mixed with NADPH. The mixture is pre-heated (7 min) to 37° C. Test compound is added, and the mixture is incubated for 30 minutes. Incubations are run in duplicate. Samples are withdrawn at predetermined stop times and mixed with methanol containing internal standard (IS) to terminate all enzyme activity and precipitate proteins. A control without NADPH (to detect problems such as nonspecific protein binding, heat instability or non-CYP mediated metabolism) and a control without microsomes (for assessing compound stability in the absence of any active enzymes) are tested.
as §1, §2
The logarithm of the peak area ratios of test compound to internal standard (IS) versus incubation time is plotted in a graph.
The rate constant (k) (min^−1) of test compound depletion is calculated from the linear part of the curve and the half-time (t1/2) in minutes can be calculated from the rate constant (Eq. 2).
Intrinsic clearance (CIint) (mL/min/mg protein) is calculated from: […]
where c is the microsomal protein concentration in mg/mL.
Conversion to apparent clearance (CIapp) (mL/min/kg) is done by Eq. 4:
CIapp=CIint×a×b/d (Eq. 4)
where a, b and d are the scaling factors for normalizing CIint to human body weight.
a: 45 (microsomal protein/liver weight (mg/g))
b: 1500 (liver weight (g))
Hepatic clearance (CIh) (mL/min/kg) based on the well-stirred model is described as followed:
CIh=(CIapp·Q)/(CIapp+Q) (Eq. 5)
where Q is the liver blood flow in mL/min/kg (20 in humans).
Dividing hepatic clearance with liver blood flow, the hepatic extraction ratio (%) can be calculated:
Apparent clearance below approximately 10 mL/min/kg human body weight (corresponding to extraction ratio of approx. 33%) is considered as low clearance (high metabolic stability). Apparent intrinsic clearance above approximately 60 mL/min/kg human body weight (corresponding to extraction ratio of approx. 75%) is considered as high clearance (low metabolic stability).

For `COc1cc([C@@H](C)N[C@H]2CC[C@@H](c3ccc(OCC(=O)N4CCNCC4)cc3)C2)ccc1F` [Compound 103, 2-[4-[(1R,3S)-3-[[(1R)-1-(4-Fluoro-3-methoxy-phenyl)ethyl]-amino]-cyclopentyl]phenoxy]-1-piperazin-1-yl-ethanone], the “Clearance (% Eh) in rat hepatocytes” value in series [1] is on record as “B (B: 33% ≦ Eh ≦ 75%)”. In addition, the “Clearance (% Eh) in human liver microsomes” value in series [2] was “A (A: Eh < 33%)”.

`COc1cc([C@@H](C)N[C@H]2CC[C@@H](c3ccc(OCC(=O)NCCS(N)(=O)=O)cc3)C2)ccc1F` [Compound 104, 2-[4-[(1R,3S)-3-[[(1R)-1-(4-Fluoro-3-methoxy-phenyl)ethyl]-amino]-cyclopentyl]phenoxy]-N-(2-sulfamoylethyl)acetamide]: in series [1], the “Clearance (% Eh) in rat hepatocytes” value was “A (A: Eh < 33%)”. Moreover, the “Clearance (% Eh) in human liver microsomes” value in series [2] is on record as “A (A: Eh < 33%)”.

Take `COc1cc([C@@H](C)N[C@H]2CC[C@@H](c3ccc(OCC(=O)NCCNCCO)cc3)C2)ccc1F` [Compound 106, 2-[4-[(1R,3S)-3-[[(1R)-1-(4-Fluoro-3-methoxy-phenyl)ethyl]-amino]-cyclopentyl]phenoxy]-N-[2-(2-hydroxyethylamino)ethyl]acetamide]: in series [1], the “Clearance (% Eh) in rat hepatocytes” value is recorded as “B (B: 33% ≦ Eh ≦ 75%)”. Also, the “Clearance (% Eh) in human liver microsomes” value in series [2] is given as “A (A: Eh < 33%)”.

As to `COc1cc([C@@H](C)N[C@H]2CC[C@@H](c3ccc(OCC(=O)NCCNS(C)(=O)=O)cc3)C2)ccc1F` [Compound 108, 2-[4-[(1R,3S)-3-[[(1R)-1-(4-Fluoro-3-methoxy-phenyl)ethyl]-amino]-cyclopentyl]phenoxy]-N-[2-(methanesulfonamido)ethyl]acetamide], in series [1], the “Clearance (% Eh) in rat hepatocytes” value is reported as “B (B: 33% ≦ Eh ≦ 75%)”. The “Clearance (% Eh) in human liver microsomes” value in series [2] was “A (A: Eh < 33%)”.

Turning to `COc1cc([C@@H](C)N[C@H]2CC[C@@H](c3ccc(OCC(=O)N4CCN(C(C)=O)CC4)cc3)C2)ccc1F` [Compound 109, 1-(4-Acetylpiperazin-1-yl)-2-[4-[(1R,3S)-3-[[(1R)-1-(4-fluoro-3-methoxy-phenyl)ethyl]amino]cyclopentyl]phenoxy]ethanone], the “Clearance (% Eh) in rat hepatocytes” value in series [1] is on record as “B (B: 33% ≦ Eh ≦ 75%)”. Further, the “Clearance (% Eh) in human liver microsomes” value in series [2] is “A (A: Eh < 33%)”.

For `COc1cc([C@@H](C)N[C@H]2CC[C@@H](c3ccc(OCC(=O)N4CCN(S(N)(=O)=O)CC4)cc3)C2)ccc1F` [Compound 110, 4-[2-[4-[(1R,3S)-3-[[(1R)-1-(4-Fluoro-3-methoxy-phenyl)-ethyl]-amino]cyclopentyl]phenoxy]acetyl]piperazine-1-sulfonamide], the “Clearance (% Eh) in rat hepatocytes” value in series [1] is listed as “B (B: 33% ≦ Eh ≦ 75%)”. In series [2], the “Clearance (% Eh) in human liver microsomes” value is given as “B (B: 33% ≦ Eh ≦ 75%)”.

As to `C[C@@H](N[C@H]1CC[C@@H](c2ccc(OCC(=O)NC3CCNCC3)cc2)C1)c1cccc2ccccc12` [Compound 112, 2-[4-[(1R,3S)-3-[[(1R)-1-(1-Naphthyl)ethyl]amino]cyclopentyl]-phenoxy]-N-(4-piperidyl)acetamide], the “Clearance (% Eh) in rat hepatocytes” value in series [1] is given as “B (B: 33% ≦ Eh ≦ 75%)”. Moreover, the “Clearance (% Eh) in human liver microsomes” value in series [2] is “A (A: Eh < 33%)”.
